PubChem BioAssay AID256 (DTP/NCI, 2004)
Values joined by “and” are separate entries in the source; they are usually repeats but may differ in a detail not shown here. Identical values can stand only once. Inconclusive results and toxic doses are left out.

Tested on: CD2F1 mice, L1210 leukemia ip, survival T/C
Experiment: NCI In Vivo Anticancer Drug Screen. Data for tumor model L1210 Leukemia (intraperitoneal) in CD2F1 (CDF1) mice
Details: higher = longer survival
Procedure, shortened: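 Activity against a transplanted murine tumor was judged by comparing the compound group with a vehicle group. The outcome in the treated animals was divided by that in the controls.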

For `CN(C)c1ccc(Nc2c3ccccc3nc3ccccc23)cc1`, the T/C (endpoint: mean survival time, dose: 120.0 mg/kg/injection, schedule: Q03HX040 (oral), vehicle: saline) was 154 % of control, the T/C (endpoint: mean survival time, dose: 150.0 mg/kg/injection, schedule: Q03HX008 (oral), vehicle: saline) was 124 % of control and the T/C (endpoint: mean survival time, dose: 300.0 mg/kg/injection, schedule: Q03HX016 (oral), vehicle: saline) was 152 % of control. The T/C (endpoint: median survival time, dose: 22.5 mg/kg/injection, schedule: Q01DX009 (ip), vehicle: saline) was 111 % of control, the T/C (endpoint: median survival time, dose: 45.0 mg/kg/injection, schedule: Q01DX009 (ip), vehicle: saline) was 161 % of control and 185 % of control and the T/C (endpoint: median survival time, dose: 90.0 mg/kg/injection, schedule: Q01DX009 (ip), vehicle: saline) was 188 % of control and 207 % of control.
In the case of `Oc1ccc2ccccc2c1Cc1ccccc1`, the T/C (endpoint: mean survival time, dose: 100.0 mg/kg/injection, schedule: Q04DX003 (ip), vehicle: saline with Tween-80) is reported as 101 % of control, the T/C (endpoint: mean survival time, dose: 200.0 mg/kg/injection, schedule: Q04DX003 (ip), vehicle: saline with Tween-80) is reported as 97 % of control and the T/C (endpoint: mean survival time, dose: 400.0 mg/kg/injection, schedule: Q04DX003 (ip), vehicle: saline with Tween-80) is reported as 98 % of control.
`O=C(CCOP(=O)(N1CC1)N1CC1)OCc1ccccc1` was tested, and the T/C (endpoint: mean survival time, dose: 2.0 mg/kg/injection, schedule: Q01DX009 (ip), vehicle: water) was 101 % of control, the T/C (endpoint: mean survival time, dose: 3.9 mg/kg/injection, schedule: Q01DX001 (ip), vehicle: Klucel (hydroxypropylcellulose) (HPC)) was 89 % of control and the T/C (endpoint: mean survival time, dose: 4.0 mg/kg/injection, schedule: Q01DX009 (ip), vehicle: water) was 98 % of control. The T/C (endpoint: mean survival time, dose: 7.8 mg/kg/injection, schedule: Q01DX001 (ip), vehicle: Klucel (hydroxypropylcellulose) (HPC)) was 102 % of control, the T/C (endpoint: mean survival time, dose: 8.0 mg/kg/injection, schedule: Q01DX009 (ip), vehicle: water) was 104 % of control and the T/C (endpoint: mean survival time, dose: 15.6 mg/kg/injection, schedule: Q01DX001 (ip), vehicle: Klucel (hydroxypropylcellulose) (HPC)) was 98 % of control. For the same compound, the T/C (endpoint: mean survival time, dose: 16.0 mg/kg/injection, schedule: Q01DX009 (ip), vehicle: water) was 106 % of control, the T/C (endpoint: mean survival time, dose: 31.2 mg/kg/injection, schedule: Q01DX001 (ip), vehicle: Klucel (hydroxypropylcellulose) (HPC)) was 88 % of control and the T/C (endpoint: mean survival time, dose: 32.0 mg/kg/injection, schedule: Q01DX009 (ip), vehicle: water) was 118 % of control.
In the case of `COc1ccc([C@@]23Oc4cc(OC)cc(OC)c4[C@]2(O)[C@H](O)[C@H](C(=O)N(C)C)[C@H]3c2ccccc2)cc1`, the T/C (endpoint: median survival time, dose: 0.25 mg/kg/injection, schedule: Q01DX009 (ip), vehicle: Klucel (hydroxypropylcellulose) (HPC)) is reported as 101 % of control, the T/C (endpoint: median survival time, dose: 0.5 mg/kg/injection, schedule: Q01DX009 (ip), vehicle: Klucel (hydroxypropylcellulose) (HPC)) is reported as 97 % of control and the T/C (endpoint: median survival time, dose: 1.0 mg/kg/injection, schedule: Q01DX009 (ip), vehicle: Klucel (hydroxypropylcellulose) (HPC)) is reported as 102 % of control. The T/C (endpoint: median survival time, dose: 2.0 mg/kg/injection, schedule: Q01DX009 (ip), vehicle: Klucel (hydroxypropylcellulose) (HPC)) was 113 % of control and the T/C (endpoint: median survival time, dose: 4.0 mg/kg/injection, schedule: Q01DX009 (ip), vehicle: Klucel (hydroxypropylcellulose) (HPC)) was 108 % of control.
With `CCOc1ccccc1NC(=O)NC1C(OC(C)=O)OC(COC(C)=O)C(OC(C)=O)C1OC(C)=O` (centres undefined) the T/C (endpoint: mean survival time, dose: 12.5 mg/kg/injection, schedule: Q01DX009 (ip), vehicle: other) was 94 % of control, the T/C (endpoint: mean survival time, dose: 25.0 mg/kg/injection, schedule: Q01DX009 (ip), vehicle: other) was 100 % of control and the T/C (endpoint: mean survival time, dose: 50.0 mg/kg/injection, schedule: Q01DX009 (ip), vehicle: other) was 94 % of control. The T/C (endpoint: mean survival time, dose: 100.0 mg/kg/injection, schedule: Q01DX009 (ip), vehicle: other) was 96 % of control and the T/C (endpoint: mean survival time, dose: 200.0 mg/kg/injection, schedule: Q01DX009 (ip), vehicle: other) was 90 % of control.
`COc1ccccc1OCC1CO1` (centres undefined) was tested, and the T/C (endpoint: mean survival time, dose: 100.0 mg/kg/injection, schedule: Q01DX001 (ip), vehicle: saline) was 101 % of control, the T/C (endpoint: mean survival time, dose: 200.0 mg/kg/injection, schedule: Q01DX001 (ip), vehicle: saline) was 102 % of control and the T/C (endpoint: mean survival time, dose: 400.0 mg/kg/injection, schedule: Q01DX001 (ip), vehicle: saline) was 102 % of control.
`CCC[CH2][Sn]1([CH2]CCC)[O]OC(C)(CC)[O]1` (centres undefined) was tested, and the T/C (endpoint: mean survival time, dose: 0.78 mg/kg/injection, schedule: Q01DX009 (ip), vehicle: saline with Tween-80) was 95 % of control, the T/C (endpoint: mean survival time, dose: 1.56 mg/kg/injection, schedule: Q01DX009 (ip), vehicle: saline with Tween-80) was 110 % of control and the T/C (endpoint: mean survival time, dose: 3.13 mg/kg/injection, schedule: Q01DX009 (ip), vehicle: saline with Tween-80) was 112 % of control.
For `CC1=NC(c2ccccn2)=NNC(c2ccccn2)=C1c1ccccc1`, the T/C (endpoint: mean survival time, dose: 12.5 mg/kg/injection, schedule: Q01DX009 (ip), vehicle: water) was 98 % of control, the T/C (endpoint: mean survival time, dose: 25.0 mg/kg/injection, schedule: Q01DX009 (ip), vehicle: water) was 96 % of control and the T/C (endpoint: mean survival time, dose: 50.0 mg/kg/injection, schedule: Q01DX009 (ip), vehicle: water) was 98 % of control. The T/C (endpoint: mean survival time, dose: 100.0 mg/kg/injection, schedule: Q01DX009 (ip), vehicle: water) was 86 % of control and the T/C (endpoint: mean survival time, dose: 200.0 mg/kg/injection, schedule: Q01DX009 (ip), vehicle: water) was 90 % of control.
